System: NOMO1
Experiment: cell viability relative to DMSO control; higher = less cytotoxic
Details: 48 h
Outline: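 Viability is a per-plate percentage relative to DMSO wells, with cell-free wells as background. CellTiter-Glo One luminescence was read after 48 h at 37°C on 1536-well plates (5 μl) of NOMO1 or SEM (500 cells/well) or P12-Ichikawa (1000 cells/well) leukemia cells. The cells had been adapted for at least four passages in each medium and pin-dosed with library compounds in DMSO from 47 μM to 0.79 nM in 11 threefold steps.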

[1] = HPLM + 10% dialyzed FBS, 0.000781 µM
[2] = HPLM + 10% dialyzed FBS, 0.00234 µM
[3] = HPLM + 10% dialyzed FBS, 0.00702 µM
[4] = HPLM + 10% dialyzed FBS, 0.0211 µM
[5] = HPLM + 10% dialyzed FBS, 0.0632 µM
[6] = HPLM + 10% dialyzed FBS, 0.19 µM
[7] = HPLM + 10% dialyzed FBS, 0.569 µM
[8] = HPLM + 10% dialyzed FBS, 1.71 µM
[9] = HPLM + 10% dialyzed FBS, 5.12 µM
[10] = HPLM + 10% dialyzed FBS, 15.4 µM
[11] = HPLM + 10% dialyzed FBS, 46.1 µM
[12] = RPMI 5 mM glucose + 10% FBS, 0.000781 µM
[13] = RPMI 5 mM glucose + 10% FBS, 0.00234 µM
[14] = RPMI 5 mM glucose + 10% FBS, 0.00702 µM
[15] = RPMI 5 mM glucose + 10% FBS, 0.0211 µM
[16] = RPMI 5 mM glucose + 10% FBS, 0.0632 µM
[17] = RPMI 5 mM glucose + 10% FBS, 0.19 µM
[18] = RPMI 5 mM glucose + 10% FBS, 0.569 µM
[19] = RPMI 5 mM glucose + 10% FBS, 1.71 µM
[20] = RPMI 5 mM glucose + 10% FBS, 5.12 µM
[21] = RPMI 5 mM glucose + 10% FBS, 15.4 µM
[22] = RPMI 5 mM glucose + 10% FBS, 46.1 µM
[23] = RPMI 5 mM glucose + 10% dialyzed FBS, 0.000781 µM
[24] = RPMI 5 mM glucose + 10% dialyzed FBS, 0.00234 µM
[25] = RPMI 5 mM glucose + 10% dialyzed FBS, 0.00702 µM
[26] = RPMI 5 mM glucose + 10% dialyzed FBS, 0.0211 µM
[27] = RPMI 5 mM glucose + 10% dialyzed FBS, 0.0632 µM
[28] = RPMI 5 mM glucose + 10% dialyzed FBS, 0.19 µM
[29] = RPMI 5 mM glucose + 10% dialyzed FBS, 0.569 µM
[30] = RPMI 5 mM glucose + 10% dialyzed FBS, 1.71 µM
[31] = RPMI 5 mM glucose + 10% dialyzed FBS, 5.12 µM
[32] = RPMI 5 mM glucose + 10% dialyzed FBS, 15.4 µM
[33] = RPMI 5 mM glucose + 10% dialyzed FBS, 46.1 µM

SMILES | cell viability [1] [%] | cell viability [2] [%] | cell viability [3] [%] | cell viability [4] [%] | cell viability [5] [%] | cell viability [6] [%] | cell viability [7] [%] | cell viability [8] [%] | cell viability [9] [%] | cell viability [10] [%] | cell viability [11] [%] | cell viability [12] [%] | cell viability [13] [%] | cell viability [14] [%] | cell viability [15] [%] | cell viability [16] [%] | cell viability [17] [%] | cell viability [18] [%] | cell viability [19] [%] | cell viability [20] [%] | cell viability [21] [%] | cell viability [22] [%] | cell viability [23] [%] | cell viability [24] [%] | cell viability [25] [%] | cell viability [26] [%] | cell viability [27] [%] | cell viability [28] [%] | cell viability [29] [%] | cell viability [30] [%] | cell viability [31] [%] | cell viability [32] [%] | cell viability [33] [%]
COc1cc([C@@H]2c3cc4c(cc3[C@@H](O)C3COC(=O)C32)OCO4)cc(OC)c1O (stereo partly specified) | 88.8 | 100 | 101 | 37 | 94.3 | 53.1 | 37.9 | 45.9 | 30.5 | 30.3 | 28.2 | 81.3 | 95.6 | 85.7 | 17.6 | 92 | 82.7 | 20.5 | 22.1 | 19.7 | 20.3 | 19.6 | 88.1 | 95.3 | 91.5 | 32.1 | 90.8 | 73.3 | 25.7 | 26.2 | 22.9 | 23 | 22.3
O=P1(NCCCl)OCCCN1CCCl (stereo unspecified) | 90.5 | 102 | 96.8 | 104 | 97.7 | 84.6 | 119 | 117 | 99.7 | 109 | 76.1 | 82.3 | 88 | 79.4 | 77.2 | 77 | 89.2 | 83.5 | 86.8 | 91.1 | 76.8 | 79.4 | 86.9 | 87.6 | 81.1 | 85.3 | 85.6 | 87.9 | 87.4 | 97.5 | 84.6 | 98.5 | 78.1
COC1=CC=CC(=C1/C2=N/CC3=C(N=C(NC4=CC(=C(C=C4)C(O)=O)OC)N=C3)C5=CC=C(Cl)C=C25)F | 78.5 | 88.3 | 78.9 | 88.2 | 76.3 | 38.6 | 53.4 | 48.3 | 58.6 | 62 | 51.6 | 70.8 | 80.6 | 77.2 | 84 | 71.4 | 28.4 | 48.8 | 46.5 | 49.8 | 53.6 | 61.8 | 82.2 | 77.5 | 72.9 | 82.2 | 63.7 | 51.9 | 49.4 | 48.2 | 49 | 50.5 | 61
O=C(c1ccc(C(=O)N2CCC(N3CCCC3)CC2)c(Nc2ccccc2)c1)N1CCC(N2CCCC2)CC1 | 98.6 | 110 | 104 | 103 | 105 | 111 | 112 | 104 | 102 | 113 | 112 | 85.6 | 98.2 | 90.3 | 95 | 106 | 91.7 | 82.3 | 94.3 | 99.7 | 92.6 | 107 | 101 | 110 | 111 | 98.6 | 98.2 | 104 | 101 | 109 | 96.7 | 96.3 | 97.3
CCN(CC)CCNC(=O)c1ccc2nc(-c3ccccc3)c(-c3ccc(CN4CCC(n5c(=O)[nH]c6ccccc65)CC4)cc3)nc2c1 | 95.1 | 124 | 152 | 134 | 112 | 130 | 107 | 93.6 | 10.6 | 8.39 | 4.57 |  |  |  |  |  |  |  |  |  |  |  |  |  |  |  |  |  |  |  |  |  | 
CCN(CCO)CCCC(C)Nc1ccnc2cc(Cl)ccc12 (stereo unspecified) | 111 | 105 | 104 | 123 | 112 | 139 | 107 | 101 | 90 | 53.2 | 26 | 107 | 115 | 110 | 102 | 101 | 118 | 115 | 116 | 110 | 45.2 | 21 |  |  |  |  |  |  |  |  |  |  | 
COc1c(C)c2c(c(O)c1C/C=C(\C)CCC(=O)OCCN1CCOCC1)C(=O)OC2 | 90.3 | 91.9 | 110 | 122 | 112 | 99.8 | 107 | 86.3 | 60.5 | 43.9 | 31.9 | 98.5 | 108 | 98 | 92.7 | 95 | 110 | 107 | 122 | 62.9 | 38.8 | 33.6 | 102 | 108 | 102 | 111 | 104 | 115 | 98.9 | 89 | 64.7 | 49.5 | 42.2
CC[P](CC)(CC)=[Au][S][C@@H]1O[C@H](COC(C)=O)[C@@H](OC(C)=O)[C@H](OC(C)=O)[C@H]1OC(C)=O | 118 | 121 | 119 | 109 | 120 | 105 | 115 | 55.6 | 9.31 | 3.26 | 2.08 | 99.7 | 115 | 105 | 109 | 116 | 87 | 90.4 | 26.9 | 6.9 | 2.16 | 1.83 | 95 | 125 | 111 | 125 | 102 | 114 | 108 | 48.9 | 11.6 | 3.14 | 1.73
COCCNCCCn1c(C(=O)CF)c(-c2ccc(C)cc2)c2c(N)ncnc21 | 94.7 | 120 | 98.5 | 88.7 | 117 | 107 | 108 | 98 | 105 | 105 | 93.9 | 103 | 88 | 88.5 | 93.1 | 98 | 93.5 | 88.5 | 88.7 | 88.5 | 97.4 | 107 | 96.8 | 101 | 105 | 99.4 | 93.3 | 86.9 | 99.4 | 95.6 | 83.7 | 93 | 101
N[S+](=O)([O-])c1cc2c(cc1Cl)NCN[S+]2(=O)[O-] | 111 | 97.3 | 105 | 109 | 122 | 111 | 122 | 121 | 103 | 105 | 102 | 108 | 109 | 114 | 109 | 101 | 113 | 119 | 117 | 117 | 112 | 98.8 | 109 | 101 | 112 | 106 | 122 | 136 | 117 | 124 | 111 | 112 | 101
O=C(Nc1cccc2c(=O)cc(-c3nnn[nH]3)oc12)c1ccc(OCCCCc2ccccc2)cc1 | 75.4 | 80.8 | 104 | 107 | 100 | 110 | 94.1 | 102 | 95 | 83.9 | 8.37 | 73.4 | 81.2 | 85.2 | 84.6 | 84.4 | 93.7 | 90.1 | 88.6 | 79 | 81.5 | 10.5 | 82.8 | 95.1 | 91.7 | 97.5 | 94.1 | 88.9 | 94.4 | 83.3 | 80.3 | 73.7 | 22.8
O=C(O)c1nn(Cc2ccc(Cl)cc2Cl)c2ccccc12 | 112 | 116 | 106 | 100 | 78.3 | 83.8 | 71.2 | 61.8 | 92.3 | 76.5 | 69.9 | 86.1 | 76.6 | 78.1 | 83.8 | 96.7 | 81.7 | 75.5 | 83.8 | 85.4 | 79.5 | 74 | 79.9 | 89.7 | 97.4 | 94.2 | 91.1 | 85.6 | 73.8 | 75.3 | 83.2 | 81.2 | 76.1
O=C(O)CCCc1ccc(N(CCCl)CCCl)cc1 | 111 | 119 | 119 | 143 | 118 | 151 | 109 | 134 | 138 | 123 | 86.4 | 115 | 110 | 134 | 135 | 127 | 132 | 146 | 132 | 141 | 135 | 61.4 | 119 | 125 | 131 | 125 | 130 | 125 | 129 | 108 | 152 | 141 | 63.9
COC(=O)Nc1nc2cc(Sc3ccccc3)ccc2[nH]1 |  |  |  |  |  |  |  |  |  |  |  | 114 | 122 | 124 | 113 | 120 | 107 | 115 | 111 | 22.8 | 42.9 | 36.8 | 122 | 111 | 122 | 115 | 140 | 119 | 119 | 115 | 32.6 | 35.1 | 29.7
CNC(=O)c1cc(COc2nnc(Nc3ccc(Cl)cc3)c3ccoc23)ccn1 | 110 | 110 | 107 | 103 | 114 | 131 | 114 | 107 | 98.2 | 91.1 | 65.7 | 114 | 123 | 106 | 112 | 110 | 111 | 109 | 104 | 92.6 | 87.4 | 87.5 | 104 | 111 | 107 | 101 | 109 | 102 | 92.7 | 96.4 | 98.6 | 101 | 87.3
Cc1cccc(Nc2nc(N[C@@H]3CCCC[C@@H]3N)ncc2C(N)=O)c1 | 119 | 109 | 119 | 115 | 115 | 126 | 110 | 80.9 | 77.4 | 85.5 | 83 | 96.1 | 106 | 114 | 117 | 129 | 109 | 113 | 99.1 | 58.7 | 56 | 51.5 | 101 | 99.2 | 109 | 107 | 119 | 115 | 108 | 82.4 | 55.5 | 58.6 | 56.8
Cc1n[nH]c(C)c1Cc1sc2c(c1C(=O)N1C[C@H](O)CO1)c(=O)n(C)c(=O)n2CC(C)C |  |  |  |  |  |  |  |  |  |  |  | 107 | 105 | 102 | 100 | 102 | 102 | 109 | 99.1 | 93.9 | 106 | 109 | 105 | 109 | 117 | 102 | 116 | 104 | 115 | 122 | 113 | 119 | 99.7

From the supplement of paper PMC11451515
